pIC50: −log10 of the molar value. Read-outs that look alike come from different tables or passages of the source.

Assay in all cases: microbe, parasite or virus in culture
Common to all, as to assay type: cell-based, Hepatitis C virus (HCV)

One test relates to HCV replicon 1AY93H. The conditions noted are these: Replicon Assay A. Summed up: (§1)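 Replicon cells incubated with compound for 3 days in medium with 5% FBS and 0.5% DMSO final. Replicon RNA measured in lysates by multiplex real-time RT-PCR (Neo set) against cyclophilin control, quantified from standard curves of Ct versus log ng replicon total RNA.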
In general terms: In antiviral work, replicon cells carry a viral genome segment that copies itself.

Another test relates to HCV replicon 1A. The conditions noted are these: HCV replicon 1A, Replicon Assay A. Put shortly: as §1
Another test deals with HCV replicon 2B. The conditions noted are these: read-out: 2B IC50; HCV replicon 2B; Replicon Assay A. Summed up: as §1
[1] abbreviates: read-out: 1A Y93H IC50, HCV replicon 1A Y93H.
Setting [2] is: Hepatitis C virus, read-out: 1A Y93H IC50, HCV replicon 1A Y93H.

As usually defined, the pIC50 is the negative decadic logarithm of the IC50, by convention in mol/L. `COC(=O)N[C@H](C(=O)N1CCC[C@H]1c1ncc(-c2ccc3c(c2)OC(c2cc4ccccc4s2)n2c-3cc3cc(-c4cnc([C@@H]5C[C@H]6C[C@H]6N5C(=O)[C@@H](NC(=O)OC)C(C)C)[nH]4)ccc32)[nH]1)C(C)C` (single isomer, unassigned) [Compound 610]: the pIC50 was 9.34 in the test on HCV replicon 1AY93H (setting [1]), 10.91 in the test with HCV replicon 1A and 9.57 with HCV replicon 2B.
On to `COC(=O)N[C@H](C(=O)N1CCC[C@H]1c1ncc(-c2ccc3c(c2)OC(c2ccc(C4CC4)s2)n2c-3c(F)c3cc(-c4cnc([C@@H]5C[C@H]6C[C@H]6N5C(=O)[C@@H](NC(=O)OC)C(C)C)[nH]4)ccc32)[nH]1)C(C)C` (single isomer, unassigned) [Compound 612], for which the negative logarithm of the IC50 (pIC50) was 9.33 with HCV replicon 1AY93H (setting [1]), 11.80 with HCV replicon 1A and 8.66 in the test with HCV replicon 2B.
As to `COC(=O)N[C@H](C(=O)N1CCC[C@H]1c1ncc(-c2cc(F)c3c(c2)OC(c2cc4c(s2)CCC4)n2c-3cc3cc(-c4cnc([C@@H]5CCCN5C(=O)[C@@H](NC(=O)OC)C5CCOCC5)[nH]4)ccc32)[nH]1)C(C)C` (single isomer, unassigned) [Compound 621], the pIC50 is 9.97 with HCV replicon 1AY93H (setting [1]), 11.51 in the test with HCV replicon 1A and 9.08 with HCV replicon 2B.
Consider `COC(=O)N[C@H](C(=O)N1C[C@H](F)C[C@H]1c1ncc(-c2ccc3c(c2)cc2n3C(c3cc4ccccc4s3)Oc3cc(-c4cnc([C@@H]5CCCN5C(=O)[C@@H](NC(=O)OC)C5CCOCC5)[nH]4)ccc3-2)[nH]1)C(C)C` (single isomer, unassigned) [Compound 623], for which the pIC50 in the test on HCV replicon 1AY93H (setting [1]) was 10.67; in the test with HCV replicon 1A (Hepatitis C virus), 11.62; with HCV replicon 2B, 9.46.
As to `COC(=O)N[C@H](C(=O)N1C[C@H](F)C[C@H]1c1ncc(-c2ccc3c(c2)cc2n3C(c3cc4ccccc4s3)Oc3cc(-c4cnc([C@@H]5CCCN5C(=O)[C@@H](NC(=O)OC)C5CCOCC5)[nH]4)ccc3-2)[nH]1)C(C)C` (single isomer, unassigned) [Compound 624], the values for the negative-log IC50 (pIC50) with HCV replicon 1AY93H (setting [1]), in the test with HCV replicon 1A and in the test with HCV replicon 2B were 9.31, 11.68 and 9.38, respectively.
Regarding `COC(=O)N[C@H](C(=O)N1CCC[C@H]1c1ncc(-c2ccc3c(c2)OC(c2cc4ccccc4s2)n2c-3cc3cc(-c4cnc([C@@H]5C[C@@H](F)CN5C(=O)[C@@H](NC(=O)OC)C5CCOCC5)[nH]4)ccc32)[nH]1)C(C)C` (single isomer, unassigned) [Compound 626], the negative-log IC50 (pIC50) in the test with HCV replicon 1AY93H (setting [1]) is 10.89; in the test with HCV replicon 1A (Hepatitis C virus), 11.68; with HCV replicon 2B, 9.75.
On to `COC(=O)N[C@H](C(=O)N1CCC[C@H]1c1ncc(-c2ccc3c(c2)OC(c2cc4ccccc4s2)n2c-3cc3cc(-c4cnc([C@@H]5C[C@@H](F)CN5C(=O)[C@@H](NC(=O)OC)C5CCOCC5)[nH]4)ccc32)[nH]1)C(C)C` (single isomer, unassigned) [Compound 627], for which the negative-log IC50 (pIC50) was 10.80 with HCV replicon 1AY93H (setting [1]), 11.52 in the test on HCV replicon 1A and 9.20 in the test with HCV replicon 2B.
For the molecule `COC(=O)N[C@H](C(=O)N1CCC[C@H]1c1ncc(-c2ccc3c(c2)OC(c2cc4ccccc4s2)n2c-3cc3cc(-c4cnc([C@@H]5C[C@@H](F)CN5C(=O)[C@@H](NC(=O)OC)C5CCOCC5)[nH]4)ccc32)[nH]1)C(C)C` (single isomer, unassigned) [Compound 628], the results for the pIC50 in the test on HCV replicon 1AY93H (setting [1]), in the test on HCV replicon 1A and with HCV replicon 2B were 9.45, 11.50 and 9.04, respectively.
Take `CCc1ccc(C2Oc3cc(-c4cnc([C@@H]5CCCN5C(=O)[C@@H](NC(=O)OC)C(C)C)[nH]4)ccc3-c3c(F)c4cc(-c5cnc([C@@H]6CCCN6C(=O)C(NC(=O)OC)C6C[C@@H](C)O[C@@H](C)C6)[nH]5)ccc4n32)s1` (single isomer, unassigned) [Compound 633]: the negative-log IC50 (pIC50) is 9.51 with HCV replicon 1AY93H (setting [1]), 11.89 in the test on HCV replicon 1A (Hepatitis C virus) and 9.51 with HCV replicon 2B.
With `COC(=O)NC(C(=O)N1CCC[C@H]1c1ncc(-c2ccc3c(c2)cc2n3C(c3cc4ccccc4s3)Oc3cc(-c4cnc([C@@H]5CCCN5C(=O)[C@@H](NC(=O)OC)C(C)C)[nH]4)cc(F)c3-2)[nH]1)C1C[C@@H](C)O[C@@H](C)C1` (single isomer, unassigned) [Compound 642], the values for the pIC50 in the test with HCV replicon 1AY93H (setting [1]), in the test with HCV replicon 1A and with HCV replicon 2B were 10.18, 11.72 and 9.70, respectively.
For the molecule `COC(=O)NC(C(=O)N1[C@@H]2C[C@@H]2C[C@H]1c1ncc(-c2ccc3c(c2)c(F)c2n3C(c3ccc(C4CC4)s3)Oc3cc(-c4cnc([C@@H]5CCCN5C(=O)[C@@H](NC(=O)OC)C(C)C)[nH]4)ccc3-2)[nH]1)C1C[C@@H](C)O[C@@H](C)C1` (single isomer, unassigned) [Compound 643], the results for the negative-log IC50 (pIC50) in the test with HCV replicon 1AY93H (setting [1]), in the test on HCV replicon 1A and in the test with HCV replicon 2B were 9.75, 11.92 and 9.49, respectively.
As to `COC(=O)NC(C(=O)N1[C@@H]2C[C@@H]2C[C@H]1c1ncc(-c2ccc3c(c2)cc2n3C(c3cc4ccccc4s3)Oc3cc(-c4cnc([C@@H]5CCCN5C(=O)[C@@H](NC(=O)OC)C(C)C)[nH]4)cc(F)c3-2)[nH]1)C1C[C@@H](C)O[C@@H](C)C1` (single isomer, unassigned) [Compound 648], the pIC50 in the test with HCV replicon 1AY93H (setting [2]) is 8.69; in the test with HCV replicon 1A, 11.44; in the test on HCV replicon 2B, 8.77.
On to `COC(=O)N[C@H](C(=O)N1CCC[C@H]1c1ncc(-c2cc(F)c3c(c2)OC(c2ccc(C(F)(F)F)s2)n2c-3cc3cc(-c4cnc([C@@H]5CCCN5C(=O)[C@@H](NC(=O)OC)C5CCOCC5)[nH]4)ccc32)[nH]1)C(C)C` (single isomer, unassigned) [Compound 655], for which the pIC50 in the test with HCV replicon 1AY93H (setting [1]) was 9.56; with HCV replicon 1A, 11.80; in the test on HCV replicon 2B, 9.62.
Regarding `COC(=O)N[C@H](C(=O)N1CCC[C@H]1c1nc(-c2ccc3c(c2)OC(c2ccc(C)s2)n2c-3cc3cc(-c4c[nH]c([C@@H]5NCCN5C(=O)[C@@H](NC(=O)OC)C(C)C)n4)ccc32)c[nH]1)C(C)C` (single isomer, unassigned) [Compound 700], the values for the pIC50 in the test with HCV replicon 1AY93H (setting [1]), in the test on HCV replicon 1A and in the test with HCV replicon 2B were 8.93, 10.82 and 9.41, respectively.
On to `COC(=O)N[C@H](C(=O)N1CCC[C@H]1c1nc(-c2ccc3c(c2)OC(c2ccc(C)s2)n2c-3cc3cc(-c4c[nH]c([C@@H]5NCCN5C(=O)[C@@H](NC(=O)OC)C(C)C)n4)ccc32)c[nH]1)C(C)C` (single isomer, unassigned) [Compound 701], for which the pIC50 in the test on HCV replicon 1AY93H (setting [1]) is 10.07; in the test with HCV replicon 1A, 11.52; in the test on HCV replicon 2B, 9.82.
In the case of `COC(=O)N[C@H](C(=O)N1CCC[C@H]1c1nc(-c2ccc3c(c2)OC(c2ccc(C)s2)n2c-3cc3cc(-c4c[nH]c([C@@H]5NCCN5C(=O)[C@@H](NC(=O)OC)C(C)C)n4)ccc32)c[nH]1)C(C)C` (single isomer, unassigned) [Compound 702], the pIC50 with HCV replicon 1AY93H (setting [1]) is 8.41; in the test with HCV replicon 1A, 11.13; in the test on HCV replicon 2B, 8.40.
As to `COC(=O)N[C@H](C(=O)N1CCC[C@H]1c1ncc(-c2ccc3c(c2)OC(c2ccc(C4CC4)s2)n2c-3cc3cc(-c4cnc([C@@H]5CCCN5C(=O)[C@@H](NC(=O)OC)C(C)C)[nH]4)ccc32)[nH]1)C(C)C` (single isomer, unassigned) [Compound 703], the pIC50 in the test with HCV replicon 1AY93H (setting [2]) is 9.59; in the test on HCV replicon 1A it was 10.52; in the test with HCV replicon 2B it was 9.92.
Take `COC(=O)N[C@H](C(=O)N1C[C@H](F)C[C@H]1c1ncc(-c2ccc3c(c2)OC(c2ccc(C)s2)n2c-3cc3cc(-c4cnc([C@@H]5C[C@H]6C[C@H]6N5C(=O)[C@@H](NC(=O)OC)C(C)C)[nH]4)ccc32)[nH]1)C(C)C` (single isomer, unassigned) [Compound 706]: the results for the negative-log IC50 (pIC50) in the test with HCV replicon 1AY93H (setting [1]), in the test with HCV replicon 1A and in the test on HCV replicon 2B were 8.61, 10.64 and 8.34, respectively.
In the case of `COC(=O)N[C@H](C(=O)N1C[C@H](F)C[C@H]1c1ncc(-c2ccc3c(c2)OC(c2ccc(C)s2)n2c-3cc3cc(-c4cnc([C@@H]5C[C@H]6C[C@H]6N5C(=O)[C@@H](NC(=O)OC)C(C)C)[nH]4)ccc32)[nH]1)C(C)C` (single isomer, unassigned) [Compound 707], the pIC50 was 10.47 in the test with HCV replicon 1AY93H (setting [1]), 11.19 with HCV replicon 1A and 9.08 with HCV replicon 2B.
For the molecule `COC(=O)N[C@H](C(=O)N1C[C@H](F)C[C@H]1c1ncc(-c2ccc3c(c2)OC(c2ccc(C)s2)n2c-3cc3cc(-c4cnc([C@@H]5C[C@H]6C[C@H]6N5C(=O)[C@@H](NC(=O)OC)C(C)C)[nH]4)ccc32)[nH]1)C(C)C` (single isomer, unassigned) [Compound 708], the negative-log IC50 (pIC50) in the test with HCV replicon 1AY93H (setting [1]) is 10.38; with HCV replicon 1A, 10.74; in the test with HCV replicon 2B, 8.52.
On to `COC(=O)N[C@H](C(=O)N1CCC[C@H]1c1ncc(-c2ccc3c(c2)OC(c2cc4sccc4s2)n2c-3cc3cc(-c4c[nH]c([C@@H]5C[C@H]6C[C@H]6N5C(=O)[C@@H](NC(=O)OC)C(C)C)n4)ccc32)[nH]1)C(C)C` (single isomer, unassigned) [Compound 717], for which the results for the negative logarithm of the IC50 (pIC50) in the test on HCV replicon 1AY93H (setting [1]), in the test on HCV replicon 1A and in the test on HCV replicon 2B were 9.70, 10.62 and 8.94, respectively.
With `COC(=O)N[C@H](C(=O)N1CCC[C@H]1c1ncc(-c2ccc3c(c2)OC(c2cc4sccc4s2)n2c-3cc3cc(-c4c[nH]c([C@@H]5C[C@H]6C[C@H]6N5C(=O)[C@@H](NC(=O)OC)C(C)C)n4)ccc32)[nH]1)C(C)C` (single isomer, unassigned) [Compound 718], the pIC50 with HCV replicon 1AY93H (setting [1]) is 9.96; in the test with HCV replicon 1A, 11.62; with HCV replicon 2B, 9.09.
For the molecule `COC(=O)N[C@H](C(=O)N1CCC[C@H]1c1nc(-c2cc(F)c3c(c2)OC(c2ccc(C4CC4)s2)n2c-3cc3cc(-c4c[nH]c([C@@H]5C[C@H]6C[C@H]6N5C(=O)[C@@H](NC(=O)OC)C(C)C)n4)ccc32)c[nH]1)C(C)C` (single isomer, unassigned) [Compound 719], the negative logarithm of the IC50 (pIC50) in the test on HCV replicon 1AY93H (setting [1]) is 10.49; in the test with HCV replicon 1A, 11.00; in the test on HCV replicon 2B, 10.44.

Source of the values: US20160257697A1, “THIOPHENE-SUBSTITUTED TETRACYCLIC COMPOUNDS AND METHODS OFUSE THEREOF FOR THE TREATMENT OF VIRAL DISEASES” (priority 2013, published 2016).
